Reference: patent US11596639B2, “Substituted indole Mcl-1 inhibitors” (Vanderbilt University, priority 2016, dated 2023)
Like-named read-outs stand apart in the source and are kept apart here.

Assays:
[1] = target: Mcl-1 (Homo sapiens (Human), UniProt Q07820); experiment: Fluorescence polarization anisotropy (FPA) competition assay, FITC-Bak or FITC-Bim BH3 peptide; format: binding; details: read-out: Ki for Inhibition of Mcl-1 by FPA assay
[2] = test system: H929 human cancer cell lines; experiment: Cellular viability / proliferation (Cell TiterGlo, 72 h); format: cell-based
Procedure, shortened: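 H929 cells plated at 1,000/well in 10% FBS medium received a 2-fold serial compound dilution (top 50 μM, DMSO <1%) 24 h later. After 72 h, viability was read by CellTiter-Glo luminescence. IC50 came from a four-parameter fit.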

[3] = Homo sapiens, NCI-H929, 72 h, read-out: GI50 on cellular proliferation of H929 human cancer cell lines, H929 cells, 72 h, Cell TiterGlo, 10% FBS

Sequence of Mcl-1 (Q07820 172-327): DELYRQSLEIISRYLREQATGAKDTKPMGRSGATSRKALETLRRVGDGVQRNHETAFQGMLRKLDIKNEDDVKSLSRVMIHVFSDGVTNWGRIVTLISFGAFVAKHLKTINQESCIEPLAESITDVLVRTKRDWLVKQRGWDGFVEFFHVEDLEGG

Row | Compound | Ki [1] [nM] | GI50 [2, 3] [nM] | GI50 ([2]; H929 cells, 72 h, Cell TiterGlo, 10% FBS, read-out: GI50 on cellular proliferation of H929 human cancer cell lines) [nM]
1 | Cc1cc(OCCCc2c3n(c4c(-c5c(C)nn(C)c5C)c(Cl)ccc24)[C@H](C)CN(c2cc(C(=O)O)cc4c2ccn4CCN2CCOCC2)C3=O)cc(C)c1Cl [Example 96, (R)-4-(7-chloro-10-(3-(4-chloro-3,5-dimethylphenoxy)propyl)-4-methyl-1-oxo-6-(1,3,5-trimethyl-1H-pyrazol-4-yl)-3,4-dihydropyrazino[1,2-a]indol-2(1H)-yl)-1-(2-morpholinoethyl)-1H-indole-6-carboxylic acid] | 2.9 | 4700 | 
2 | Cc1cc(OCCCc2c3n(c4c(-c5c(C)nn(C)c5C)c(Cl)ccc24)[C@H](C)CN(c2cn(C)c4cc(-c5nnco5)ccc24)C3=O)cc(C)c1Cl [Example 343, (R)-7-Chloro-10-(3-(4-chloro-3,5-dimethylphenoxy)propyl)-4-methyl-2-(1-methyl-6-(1,3,4-oxadiazol-2-yl)-1H-indol-3-yl)-6-(1,3,5-trimethyl-1H-pyrazol-4-yl)-3,4-dihydropyrazino[1,2-a]indol-1(2H)-one] | 3.7 | 3600 | 
3 | Cc1cc(OCCCc2c3n(c4c(-c5c(C)nn(C)c5C)c(Cl)ccc24)[C@H](C)CN(c2cccc4cc(C(=O)O)ccc24)C3=O)cc(C)c1Cl [Example 186, (R)-5-(7-Chloro-10-(3-(4-chloro-3,5-dimethylphenoxy)propyl)-4-methyl-1-oxo-6-(1,3,5-trimethyl-1H-pyrazol-4-yl)-3,4-dihydropyrazino[1,2-a]indol-2(1H)-yl)-2-naphthoic acid] | < 1 | < 200 | 
4 | Cc1cc(OCCCc2c3n(c4c(-c5c(C)nn(C)c5C)c(Cl)ccc24)CCCN(c2cc(C(=O)O)cc4c2ccn4S(C)(=O)=O)C3=O)cc(C)c1Cl [Example 32, 4-(8-Chloro-11-(3-(4-chloro-3,5-dimethylphenoxy)propyl)-1-oxo-7-(1,3,5-trimethyl-1H-pyrazol-4-yl)-4,5-dihydro-1H-[1,4]diazepino[1,2-a]indol-2(3H)-yl)-1-(methylsulfonyl)-1H-indole-6-carboxylic acid] | < 1 | 7600 | 
5 | Cc1cc(OCCCc2c3n(c4c(-c5c(C)ncnc5C)c(Cl)ccc24)CCCN(c2cccc4cc(C(=O)O)n(C)c24)C3=O)cc(C)c1Cl [Example 219, 7-[8-Chloro-11-[3-(4-chloro-3,5-dimethyl-phenoxy)propyl]-7-(4,6-dimethylpyrimidin-5-yl)-1-oxo-4,5-dihydro-3H-[1,4]diazepino[1,2-a]indol-2-yl]-1-methyl-indole-2-carboxylic acid] | 2.2 | 1200 | 
6 | Cc1cc(OCCCc2c3n(c4c(-c5c(C)nn(C)c5C)c(Cl)ccc24)[C@H](C)CN(c2cccc4c(C(=O)O)cn(Cc5ccncc5)c24)C3=O)cc(C)c1Cl [Example 472, (R)-7-(7-Chloro-10-(3-(4-chloro-3,5-dimethylphenoxy)propyl)-4-methyl-1-oxo-6-(1,3,5-trimethyl-1H-pyrazol-4-yl)-3,4-dihydropyrazino[1,2-a]indol-2(1H)-yl)-1-(pyridin-4-ylmethyl)-1H-indole-3-carboxylic acid] | 1.2 | 1700 | 
7 | CC(=O)N1CCN(S(=O)(=O)c2ccc3c(c2)c(N2C[C@@H](C)n4c(c(CCCOc5cc(C)c(Cl)c(C)c5)c5ccc(Cl)c(-c6c(C)nn(C)c6C)c54)C2=O)cn3C)CC1 [Example 278, (R)-2-(5-((4-acetylpiperazin-1-yl)sulfonyl)-1-methyl-1H-indol-3-yl)-7-chloro-10-(3-(4-chloro-3,5-dimethylphenoxy)propyl)-4-methyl-6-(1,3,5-trimethyl-1H-pyrazol-4-yl)-3,4-dihydropyrazino[1,2-a]indol-1(2H)-one] | 5.4 | 1500 | 
8 | Cc1cc(OCCCc2c3n(c4c(-c5c(C)nn(C)c5C)c(Cl)ccc24)[C@H](C)CN(c2cc(OCc4ccccc4)cc4c2cc(C(=O)O)n4C)C3=O)cc(C)c1Cl [Example 310, (M, R)-6-(benzyloxy)-4-(7-chloro-10-(3-(4-chloro-3,5-dimethylphenoxy)propyl)-4-methyl-1-oxo-6-(1,3,5-trimethyl-1H-pyrazol-4-yl)-3,4-dihydropyrazino[1,2-a]indol-2(1H)-yl)-1-methyl-1H-indole-2-carboxylic acid] | 1.5 |  | 8900
9 | Cc1cc(OCCCc2c3n(c4c(-c5c(C)nn(C)c5C)c(Cl)ccc24)[C@H](C)CN(c2cn(C)c4ccc(C(=O)Nc5ccccn5)cc24)C3=O)cc(C)c1Cl [Example 280, 3-[(4R)-7-chloro-10-[3-(4-chloro-3,5-dimethyl-phenoxy)propyl]-4-methyl-1-oxo-6-(1,3,5-trimethylpyrazol-4-yl)-3,4-dihydropyrazino[1,2-a]indol-2-yl]-1-methyl-N-(2-pyridyl)indole-5-carboxamide] | 1.5 | 2200 | 
10 | Cc1nnc(-c2ccc3c(c2)c(N2C[C@@H](C)n4c(c(CCCOc5cc(C)c(Cl)c(C)c5)c5ccc(Cl)c(-c6c(C)nn(C)c6C)c54)C2=O)cn3C)o1 [Example 337, (R)-7-Chloro-10-(3-(4-chloro-3,5-dimethylphenoxy)propyl)-4-methyl-2-(1-methyl-5-(5-methyl-1,3,4-oxadiazol-2-yl)-1H-indol-3-yl)-6-(1,3,5-trimethyl-1H-pyrazol-4-yl)-3,4-dihydropyrazino[1,2-a]indol-1(2H)-one] | 2.6 | 540 | 
11 | Cc1cc(OCCCc2c3n(c4c(-c5c(C)nc(CN6CCCC6)nc5C)c(Cl)ccc24)[C@H](C)CN(c2cn(C)c4ccc(C(=O)O)cc24)C3=O)cc(C)c1Cl [Example 390, (R)-3-(7-Chloro-10-(3-(4-chloro-3,5-dimethylphenoxy)propyl)-6-(4,6-dimethyl-2-(pyrrolidin-1-ylmethyl)pyrimidin-5-yl)-4-methyl-1-oxo-3,4-dihydropyrazino[1,2-a]indol-2(1H)-yl)-1-methyl-1H-indole-5-carboxylic acid] | 2.3 | 340 | 
12 | Cc1cc(OCCCc2c3n(c4c(-c5c(C)nn(C)c5C)c(Cl)ccc24)[C@H](C)CN(c2c(C(=O)O)ccc4ccccc24)C3=O)cc(C)c1Cl [Example 190, (R)-1-(7-Chloro-10-(3-(4-chloro-3,5-dimethylphenoxy)propyl)-4-methyl-1-oxo-6-(1,3,5-trimethyl-1H-pyrazol-4-yl)-3,4-dihydropyrazino[1,2-a]indol-2(1H)-yl)-2-naphthoic acid] | < 1 | 2200 | 
13 | Cc1cc(N2C[C@@H](C)n3c(c(CCCOc4cc(C)c(Cl)c(C)c4)c4ccc(Cl)c(-c5c(C)nn(C)c5C)c43)C2=O)c2c(c1)c(C)c(C(=O)O)n2C [Example 336, (R)-7-(7-Chloro-10-(3-(4-chloro-3,5-dimethylphenoxy)propyl)-4-methyl-1-oxo-6-(1,3,5-trimethyl-1H-pyrazol-4-yl)-3,4-dihydropyrazino[1,2-a]indol-2(1H)-yl)-1,3,5-trimethyl-1H-indole-2-carboxylic acid] | < 1 | 250 | 
14 | Cc1cc(OCCCc2c3n(c4c(-c5c(C)nn(C)c5C)c(Cl)ccc24)[C@H](C)CN(c2ccnc4ccc(-c5nnn(C)n5)cc24)C3=O)cc(C)c1Cl [Example 425, (R)-7-Chloro-10-(3-(4-chloro-3,5-dimethylphenoxy)propyl)-4-methyl-2-(6-(2-methyl-2H-tetrazol-5-yl)quinolin-4-yl)-6-(1,3,5-trimethyl-1H-pyrazol-4-yl)-3,4-dihydropyrazino[1,2-a]indol-1(2H)-one] | 1.8 | 1400 | 
15 | COc1cc(C(=O)O)nc2c(N3C[C@@H](C)n4c(c(CCCOc5cc(C)c(Cl)c(C)c5)c5ccc(Cl)c(-c6c(C)nn(C)c6C)c54)C3=O)cccc12 [Example 239, (R)-8-(7-Chloro-10-(3-(4-chloro-3,5-dimethylphenoxy)propyl)-4-methyl-1-oxo-6-(1,3,5-trimethyl-1H-pyrazol-4-yl)-3,4-dihydropyrazino[1,2-a]indol-2(1H)-yl)-4-methoxyquinoline-2-carboxylic acid] | < 1 | 1800 | 
16 | CC(=O)c1ccc2c(c1)c(N1C[C@@H](C)n3c(c(CCCOc4cc(C)c(Cl)c(C)c4)c4ccc(Cl)c(-c5c(C)nn(C)c5C)c43)C1=O)cn2C [Example 260, (R)-2-(5-Acetyl-1-methyl-1H-indol-3-yl)-7-chloro-10-(3-(4-chloro-3,5-dimethylphenoxy)propyl)-4-methyl-6-(1,3,5-trimethyl-1H-pyrazol-4-yl)-3,4-dihydropyrazino[1,2-a]indol-1(2H)-one] | < 1 | 550 | 
17 | Cc1cc(OCCCc2c3n(c4c(-c5c(C)nn(C)c5C)c(Cl)ccc24)[C@H](C)CN(c2cn(C)c4ccc(-c5nnn(C)n5)cc24)C3=O)cc(C)c1Cl [Example 350, (R)-7-Chloro-10-(3-(4-chloro-3,5-dimethylphenoxy)propyl)-4-methyl-2-(1-methyl-5-(2-methyl-2H-tetrazol-5-yl)-1H-indol-3-yl)-6-(1,3,5-trimethyl-1H-pyrazol-4-yl)-3,4-dihydropyrazino[1,2-a]indol-1(2H)-one] | < 1 | 300 | 
18 | COCCn1c(C(N)=O)cc2cccc(N3C[C@@H](C)n4c(c(CCCOc5cc(C)c(Cl)c(C)c5)c5ccc(Cl)c(-c6c(C)nn(C)c6C)c54)C3=O)c21 [Example 354, (R)-7-(7-Chloro-10-(3-(4-chloro-3,5-dimethylphenoxy)propyl)-4-methyl-1-oxo-6-(1,3,5-trimethyl-1H-pyrazol-4-yl)-3,4-dihydropyrazino[1,2-a]indol-2(1H)-yl)-1-(2-methoxyethyl)-1H-indole-2-carboxamide] | 4.3 | 580 | 
